Experimental data: patent US20070167488A1, “Novel therapeutic use” (Leo Pharma A/S, priority 2003, published 2007)
Marks after values point to notes of the source that are not given here.

How the values were obtained:
[1] = system: EAE induced in SJL/J mice with a peptide from myelin proteolipid protein (PLP139-153); assay: EAE model in SJL/J mice immunized with PLP139-153 peptide; assay type: in vivo, mouse; conditions: for Inhibition of EAE compared with the suspension vehicle group (in words): SJL/J mice, PLP139-153, doses as in tables 1 and 3; for inhibition of EAE: another experiment (data not shown)
[2] = system: IL-2; assay: IL-2 production by spleen cells of immunized, dosed mice after in vitro restimulation with PLP139-153; assay type: cell-based, mouse; conditions: example 6, 50 mg/kg i.p. daily for 10 days, vs vehicle treated group
[3] = system: IL-6; assay: IL-6 production by spleen cells of immunized, dosed mice after in vitro restimulation with PLP139-153; assay type: cell-based, mouse; conditions: example 6, 50 mg/kg i.p. daily for 10 days, vs vehicle treated group
[4] = system: IFN-γ; assay: IFN-γ production by spleen cells of immunized, dosed mice after in vitro restimulation with PLP139-153; assay type: cell-based, mouse; conditions: example 6, 50 mg/kg i.p. daily for 10 days, vs vehicle treated group
[5] = system: IL-17; assay: IL-17 production by spleen cells of immunized, dosed mice after in vitro restimulation with PLP139-153; assay type: cell-based, mouse; conditions: example 6, 50 mg/kg i.p. daily for 10 days, vs vehicle treated group
[6] = system: EAE in C57BL/6 mice immunized with a peptide from myelin oligodendrocyte glycoprotein (MOG35-55); assay: Second EAE model: C57BL/6JBom mice immunized with MOG35-55 peptide; assay type: in vivo, mouse; conditions: MOG35-55, day 0-21, dexamethasone 1 mg/kg p.o.
[7] = Table 7, 50 mg/kg p.o., suspension vehicle adjusted to pH 4 by addition of aqueous HCl
[8] = Table 4, 50 mg/kg daily, treatment as in example 4
[9] = Table 7, 50 mg/kg p.o., suspension vehicle
[10] = Table 3, experiment with vehicle AUC 28.6, day 0-21, 50 mg/kg i.p. daily
[11] = listed as 3-(1H-indol-3-ylmethylene)-1,3-dihydro-indol-2-one
[12] = Table 3, experiment with vehicle AUC 42.75, day 0-21, 50 mg/kg i.p. daily
[13] = Exp. 1, terminated day 21, 50 mg/kg i.p. daily
[14] = Exp. 4, terminated day 35, 200 mg/kg p.o. daily
[15] = Exp. 1, terminated day 21, dexamethasone 0.5 mg/kg from day 0
[16] = Exp. 2, terminated day 21, dexamethasone 1 mg/kg from day 1
[17] = Exp. 3, terminated day 28, dexamethasone 1 mg/kg from day 1
[18] = Table 3, experiment with compound 57 (vehicle AUC 28.6), day 0-21, dexamethasone 1 mg/kg p.o.
[19] = Table 3, experiment with compound 110 (vehicle AUC 42.75), day 0-21, dexamethasone 1 mg/kg p.o.
[20] = Exp. 2, terminated day 21, 5 mg/kg i.p. daily
[21] = Exp. 2, terminated day 21, 10 mg/kg i.p. daily

In the case of `COc1ccc(OC)c(/C=C2/C(=O)Nc3ccc(F)cc32)c1` [Compound 211, 3-(2,5-dimethoxy-benzylidene)-5-fluoro-1,3-dihydro-indol-2-one], the “Inhibition (%) of EAE (area-under-curve of the disease score)” value (“Inhibition (%) of EAE” below) [1, 7] is reported as 37** %.

For `CCN(CC)CCNC(=O)c1c(C)[nH]c(/C=C2\C(=O)Nc3ccccc32)c1C` [Compound 227, 2,4-dimethyl-5-(2-oxo-1,2-dihydro-indol-3-ylidenemethyl)-1H-pyrrole-3-carboxylic acid (2-diethylamino-ethyl)-amide], the “Inhibition (%) of EAE” value [1, 8] was 49%.

`Cc1cc(C)c(C=C2C(=O)Nc3ccccc32)[nH]1` [3-(3,5-dimethyl-1H-pyrrol-2-ylmethylene)-1,3-dihydro-indol-2-one] was tested, and the “Level of antigen-specific IL-2 production of spleen cells” value [2] was “inhibit expression”, the “Level of antigen-specific IL-6 production of spleen cells” value [3] was “inhibit expression” and the “Level of antigen-specific IFN-γ production of spleen cells” value [4] was “inhibit expression”. For the same compound, the “Level of antigen-specific IL-17 production of spleen cells” value [5] was “inhibit expression”.

In the case of `COc1ccc(CN(C)C)cc1/C=C1/C(=O)Nc2ccccc21` [Compound 32, 3-(5-dimethylaminomethyl-2-methoxy-benzylidene)-1,3-dihydro-indol-2-one], the “Inhibition (%) of EAE” value [1, 9] is reported as 40%.

For `Cc1[nH]c2ccccc2c1/C=C1/C(=O)Nc2ccccc21` [Compound 75, 3-(2-methyl-1H-indol-3-ylmethylene)-1,3-dihydro-indol-2-one], the “Inhibition (%) of EAE” value [1, 8] was 63%.

`O=C1Nc2ccccc2C1=Cc1c[nH]c2ccccc12` (racemic) [Compound 57, 3-(1H-indol-3-ylmethylene)-1,3-dihydro-indol-2-one] was tested, and the “Inhibition of EAE compared with the suspension vehicle group (in words)” value [1] was “clear and significant inhibition”, the “AUC (mean) of the disease score” value [1, 10] was 4.70 and the “inhibition (%)” value [1, 10] was 84%. For the same compound, the “Inhibition (%) of EAE” value [1, 9] was 32%, the “Level of antigen-specific IL-2 production of spleen cells” value [2, 11] was “inhibit expression” and the “Level of antigen-specific IL-2 production of spleen cells” value ([2]; listed as compound 57) was “clearly reduced”. For the same compound, the “Level of antigen-specific IL-6 production of spleen cells” value [3, 11] was “inhibit expression”, the “Level of antigen-specific IL-6 production of spleen cells” value ([3]; listed as compound 57) was “clearly reduced” and the “Level of antigen-specific IFN-γ production of spleen cells” value [4, 11] was “inhibit expression”. The “Level of antigen-specific IFN-γ production of spleen cells” value ([4]; listed as compound 57) was “clearly reduced”, the “Level of antigen-specific IL-17 production of spleen cells” value [5, 11] was “inhibit expression” and the “Level of antigen-specific IL-17 production of spleen cells” value ([5]; listed as compound 57) was “clearly reduced”.

`O=C1Nc2ccccc2C1=Cc1cc(Cl)ccc1Cl` (racemic) [Compound 193, 3-(2,5-dichloro-benzylidene)-1,3-dihydro-indol-2-one] was tested, and the “Inhibition (%) of EAE” value [1, 8] was 37%.

`Cc1ccc(C)c(/C=C2/C(=O)Nc3ccccc32)c1` [Compound 104, 3-(2,5-dimethyl-benzylidene)-1,3-dihydro-indol-2-one] was tested, and the “Inhibition (%) of EAE” value [1, 8] was 71%.

`CCCn1cc(/C=C2\C(=O)Nc3ccccc32)c2ccccc21` [Compound 31, 3-(1-propyl-1H-indol-3-ylmethylene)-1,3-dihydro-indol-2-one] was tested, and the “Inhibition (%) of EAE” value [1, 8] was 60%.

With `O=C(O)Cn1cc(/C=C2\C(=O)Nc3ccccc32)c2ccccc21` [Compound 26, [3-(2-oxo-1,2-dihydro-indol-3-ylidenemethyl)-indol-1-yl]-acetic acid] the “Inhibition (%) of EAE” value [1, 8] was 34%.

With `Cc1cc(C)c(/C(C(=O)O)=C2\C(=O)Nc3ccccc32)[nH]1` [Compound 229, (3,5-dimethyl-1H-pyrrol-2-yl)-(2-oxo-1,2-dihydro-indol-3-ylidene)-acetic acid] the “Inhibition (%) of EAE” value [1, 8] was 59%.

For `COc1ccc(OC)c(/C=C2/C(=O)Nc3ccccc32)c1` [Compound 110, 3-(2,5-dimethoxy-benzylidene)-1,3-dihydro-indol-2-one], the “Inhibition of EAE compared with the suspension vehicle group (in words)” value [1] was “clear and significant inhibition”, the “AUC (mean) of the disease score” value [1, 12] was 12.15 and the “inhibition (%)” value [1, 12] was 72%. The “Inhibition (%) of EAE” value [1, 9] was 47%, the “Inhibition (%) of EAE” value [1, 7] was 67** % and the “inhibition of EAE” value ([1]; 50 mg/kg, highest dose) was 90%. The “inhibition of EAE” value ([1]; lowest dose (significant at 50, 25 and 10 mg/kg; 4 mg/kg also given)) was 42%.

With `Cc1[nH]c(C=C2C(=O)Nc3ccccc32)c(C)c1CCC(=O)O` [Compound A, 3-[2,4-dimethyl-5-(oxo-1,2-dihydroindol-3-ylidenemethyl)-1H-pyrrol-3-yl]-propionic acid, reference compound] the “AUC (mean) of the disease score” value [1, 13] was 23.4, the “inhibition (%)” value [1, 13] was −36% and the “AUC (mean) of the disease score” value [1, 14] was 55.5. For the same compound, the “inhibition (%)” value [1, 14] was 11% and the “Inhibition of EAE compared with the suspension vehicle group (in words)” value [1] was “no significant inhibition”.

With `CCOC(=O)c1cc(C)c(/C=C2\C(=O)Nc3ccccc32)[nH]1` [Compound 01, 4-methyl-5-(2-oxo-1,2-dihydro-indol-3-ylidenemethyl)-1H-pyrrole-2-carboxylic acid ethyl ester] the “Inhibition (%) of EAE” value [1, 8] was 44%.

For `C[C@@H]1C[C@H]2[C@@H]3CCC4=CC(=O)C=C[C@]4(C)[C@@]3(F)[C@@H](O)C[C@]2(C)[C@@]1(O)C(=O)CO` [Dexamethasone, dexamethasone, reference compound], the “AUC (mean) of the disease score” value [1, 15] was 4.3, the “inhibition (%)” value [1, 15] was 75% and the “AUC (mean) of the disease score” value [1, 16] was 11.8. For the same compound, the “inhibition (%)” value [1, 16] was 54%, the “AUC (mean) of the disease score” value [1, 17] was 0.8 and the “inhibition (%)” value [1, 17] was 98%. For the same compound, the “AUC (mean) of the disease score” value [1, 18] was 13.15, the “inhibition (%)” value [1, 18] was 54% and the “AUC (mean) of the disease score” value [1, 19] was 8.85. The “inhibition (%)” value [1, 19] was 79%, the “AUC (mean) of the disease score” value [6] was 0.00 and the “inhibition (%)” value [6] was 100%.

With `Cc1cc(C(=O)NCCO)[nH]c1/C=C1\C(=O)Nc2ccccc21` [Compound 02, 4-methyl-5-(2-oxo-1,2-dihydro-indol-3-ylidenemethyl)-1H-pyrrole-2-carboxylic acid (2-hydroxy-ethyl)-amide] the “Inhibition (%) of EAE” value [1, 8] was 41%.

For `Cc1cc(CO)[nH]c1/C=C1\C(=O)Nc2ccccc21` [Compound 03, 3-(5-hydroxymethyl-3-methyl-1H-pyrrol-2-ylmethylene)-1,3-dihydro-indol-2-one], the “Inhibition (%) of EAE” value [1, 8] was 57%.

In the case of `COc1cccc(C=C2C(=O)Nc3ccccc32)c1` (racemic) [Compound 153, 3-(3-methoxy-benzylidene)-1,3-dihydro-indol-2-one], the “Inhibition (%) of EAE” value [1, 8] is reported as 38%.

For `CO[C@@H]1[C@H](OC(=O)NC(=O)CCl)CC[C@]2(CO2)[C@H]1[C@@]1(C)O[C@@H]1CC=C(C)C` [Compound B, reference compound], the “AUC (mean) of the disease score” value [1, 20] was 19.0, the “inhibition (%)” value [1, 20] was 25% and the “AUC (mean) of the disease score” value [1, 21] was 19.3. For the same compound, the “inhibition (%)” value [1, 21] was 24% and the “Inhibition of EAE compared with the suspension vehicle group (in words)” value [1] was “no significant inhibition”.
